The structures appear in SMILES notation. Read-outs that look alike come from different tables or passages of the source.

For one data set, the system named is A2780. Description: Inhibition of cell growth, A2780 wild type ovarian carcinoma cell line.
In a further data set the test system is 2780AD. Description: Inhibition of cell growth, adriamycin (doxorubicin) resistant 2780AD cell line. The format is cell-based, human. Particulars: for IC50: read-out: Inhibition of cell growth 2780AD nM (IC50); for RF 2780AD (IC50 in resistant cell line/IC50 in parent cell line): 2780AD vs A2780.
The next data set concerns A2780/cp70. Description: Inhibition of cell growth, cisplatin resistant A2780/cp70 cell line. It counts as cell-based, human. Particulars: for RF A2780/cp70 (IC50 in resistant cell line/IC50 in parent cell line): A2780/cp70 vs A2780.
[1] abbreviates: read-out: Inhibition of cell growth (IC50, nM) A2780, A2780, Table 1.
The mark [2] stands for this setting: read-out: Growth Inhibition (IC50) A2780, A2780, Table 4.
[3] abbreviates: Homo sapiens, A2780, read-out: Inhibition of cell growth A2780 nM (IC50).
The mark [4] stands for this setting: Homo sapiens, A2780/CP70, read-out: Inhibition of cell growth A2780/cp70 nM (IC50).
Setting [5] is: A2780/cp70 cisplatin resistant, read-out: Inhibition of cell growth A2780/cp70 nM (IC50).

In the case of `CN(C)CCNc1ccc(NCCN2CCC(O)CC2)c2c1C(=O)c1c(O)ccc(O)c1C2=O` [HAQ111, 1-{[(2-Dimethylamino)ethyl]amino}-4-{[2-(4-hydroxypiperidin-1-yl)ethyl]amino}-5,8-dihydroxy-anthracene-9,10-dione], in the data set with A2780 (setting [1]), the IC50 worked out at 6.1 nM.

In the case of `C[N+](C)([O-])CCNc1ccc(NCC[N+]2([O-])CCCC2CO)c2c1C(=O)c1c(O)ccc(O)c1C2=O` (stereo not drawn) [HAQ132N, 1-{[2-(2-Hydroxymethylpyrrolidin-1-yl-N-oxide)ethyl]amino}-4-{[(2-dimethylamino-N-oxide)ethyl]amino}-5,8-dihydroxy-anthracene-9,10-dione], the IC50 is greater than 100000 nM in the data set on A2780 (setting [2]) and greater than 100000 nM in the data set with A2780 (read-out: IC50 of di-N-oxides (order of cytotoxicity), text b286). Further, the “cytotoxicity ratio (CR=IC50 of alkylaminoanthraquinone-di-N-oxide/IC50 alkylaminoanthraquinone)” value in the data set with A2780 (text b286) is recorded as 1,450.

Regarding `O=C1c2c(O)ccc(O)c2C(=O)c2c(NCCN3CCCC(CCl)C3)ccc(NCCN3CCCC(CCl)C3)c21` (stereo not drawn) [CAQ74, 1,4-Bis-{[2-(3-chloromethylpiperidin-1-yl)ethyl]amino}-5,8-dihydroxyanthracene-9,10-dione], the IC50 in the data set on 2780AD (Homo sapiens, 2780AD) was greater than 1000 nM; with A2780 (setting [3]), greater than 1000 nM; in the data set with A2780/cp70 (setting [4]) it was greater than 1000 nM.

Regarding `CN(C)CCNc1ccc(NCCN2C(CCl)CCCC2CCl)c2c1C(=O)c1c(O)ccc(O)c1C2=O` (stereo not drawn) [CAQ187M, 1-{[2-(2,6-Dichloromethylpiperidin-1-yl)ethyl]-amino}-4-{[(2-dimethylamino)ethyl]amino}-5,8-dihydroxyanthracene-9,10-dione], the IC50 in the data set with 2780AD (2780AD adriamycin resistant) came to 106 nM; with A2780/cp70 (setting [5]) it was 357 nM. Besides, in the data set with 2780AD, the “RF 2780AD (IC50 in resistant cell line/IC50 in parent cell line)” value (shortened to “RF 2780AD”) is reported as 4.4. Further, the “RF A2780/cp70 (IC50 in resistant cell line/IC50 in parent cell line)” value (“RF A2780/cp70” for short) with A2780/cp70 was determined as 14.9.

For `O=C1c2c(O)ccc(O)c2C(=O)c2c(NCCN3CCCC(CO)C3)ccc(NCCN3CCCC(CO)C3)c21` (stereo not drawn) [HAQ70, 1,4-Bis-{[2-(3-hydroxymethylpiperidine-1-yl)ethyl]amino}-5,8-dihydroxyanthracene-9,10-dione], the melting point (in general, the temperature of the solid-liquid transition) was in the range of 180 to 183 °C.

Turning to `CN(C)CCNc1ccc(NCCN2CCCC2CCl)c2c1C(=O)c1c(O)ccc(O)c1C2=O` (stereo not drawn) [CAQ176M, 1-{[2-(2-Chloromethylpyrrolidin-1-yl)ethyl]-amino}-4-{[(2-Dimethylamino)ethyl]amino}-5,8-dihydroxyanthracene-9,10-dione], the IC50 with 2780AD (2780AD adriamycin resistant) stood at 292 nM; with A2780/cp70 (setting [5]) it was 79 nM. For the same compound, the “RF 2780AD” value in the data set with 2780AD is reported as 10.1. Also, in the data set with A2780/cp70, the “RF A2780/cp70” value is recorded as 2.7.

`CN(C)CCNc1ccc(NCCN2CCCC(O)C2)c2c1C(=O)c1c(O)ccc(O)c1C2=O` (stereo not drawn) [HAQ73, 1-[(2-Dimethylamino)ethylamino]-4-[2-(3-hydroxypiperidon-1-yl)ethylamino]-5,8-dihydroxy-anthracene-9,10-dione]: the IC50 in the data set with A2780 (setting [1]) was found to be 10.8 nM.

Regarding `O=C1c2ccccc2C(=O)c2c(NCCN3CCCC3CO)cccc21` (stereo not drawn) [HAQ163, 1-{[2-(2-Hydroxymethylpyrrolidin-1-yl)ethyl]amino}-anthracene-9,10-dione], the melting point lay in the range of 113 to 115 °C. The IC50 in the data set on 2780AD (Homo sapiens, 2780AD adriamycin resistant) is greater than 1000 nM. Moreover, the IC50 in the data set on A2780 (read-out: Inhibition of cell growth A2780 nM (IC50)) was greater than 1000 nM. The IC50 in the data set with A2780/cp70 (Homo sapiens, A2780/cp70 cisplatin resistant, read-out: Inhibition of cell growth A2780/cp70 nM (IC50)) was greater than 1000 nM.

`O=C1c2c(O)ccc(O)c2C(=O)c2c(NCCN3CCCC3CO)ccc(NCCN3CCCC3CO)c21` (stereo not drawn) [HAQ125, 1,4-Bis-{[2-(2-hydroxymethylpyrrolidin-1-yl)ethyl]amino}-5,8-dihydroxy-anthracene-9,10-dione] gave a melting point of 202 to 204 °C.

On to `CN(C)CCNc1ccc(NCCN2CCC(Cl)C2)c2c1C(=O)c1c(O)ccc(O)c1C2=O` (stereo not drawn) [CAQ188M, 1-{[2-(3-Chloropyrrolidin-1-yl)ethyl]amino}-4-{[(2-dimethylamino)ethyl]amino}-5,8-dihydroxyanthracene-9,10-dione], for which the IC50 was found to be 342 nM with 2780AD (2780AD adriamycin resistant) and 96 nM in the data set with A2780/cp70 (setting [5]). For the same compound, the “RF 2780AD” value in the data set on 2780AD is given as 5.0. For the same compound, the “RF A2780/cp70” value with A2780/cp70 was 1.4.

On to `O=C1c2c(O)ccc(O)c2C(=O)c2c(NCCN3CCCCC3CO)ccc(NCCN3CCCCC3CO)c21` (stereo not drawn) [HAQ105, 1,4-Bis-{[2-(2-hydroxymethylpiperidine-1-yl)ethyl]amino}-5,8-dihydroxy-anthracene-9,10-dione], for which the melting point is 208 to 210 °C.

Turning to `CN(C)CCNc1ccc(NCCN2CCCC2CO)c2c1C(=O)c1c(O)ccc(O)c1C2=O` (stereo not drawn) [HAQ110, 1-{[(2-Dimethylamino)ethyl]amino}-4-{[2-(2-hydroxymethylpyrrolidin-1-yl)ethyl]-amino}-5,8-dihydroxy-anthracene-9,10-dione], in the data set on A2780 (setting [2]), the IC50 was 69 nM.

In the case of `CN(C)CCNc1ccc(NCCN2CCC(Cl)CC2)c2c1C(=O)c1c(O)ccc(O)c1C2=O` [CAQ172, 1-{[2-(4-Chloropiperidin-1-yl)ethyl]amino}-4-{[(2-dimethylamino)ethyl]amino}-5,8-dihydroxyanthracene-9,10-dione], the IC50 with 2780AD (2780AD adriamycin resistant) was 426 nM; in the data set on A2780/cp70 (setting [5]), 535 nM. The “RF 2780AD” value in the data set on 2780AD amounted to 0.7. Besides, the “RF A2780/cp70” value in the data set with A2780/cp70 was 0.9.

In turn, `O=C1c2c(O)ccc(O)c2C(=O)c2c(NCCN3CCCCC3)ccc(NCCN3CCCCC3)c21` [HAQ145, 1,4-Bis-{[2-(piperidin-1-yl)ethyl]amino}-5,8-dihydroxy-anthracene-9,10-dione] returned a melting point of 219 to 221 °C.

`O=C1c2ccccc2C(=O)c2c(NCCN3CCCC3CCl)cccc21` (stereo not drawn) [CAQ191M, 1-{[2-(2-chloromethylpyrrolidin-1-yl)ethyl]amino}-anthracene-9,10-dione] gave a melting point of 250 to 253 °C. The IC50 in the data set with 2780AD (Homo sapiens, 2780AD) was greater than 1000 nM. Further, the IC50 in the data set with A2780 (setting [3]) is greater than 1000 nM. Besides, the IC50 in the data set on A2780/cp70 (setting [4]) is greater than 1000 nM.

Take `CN(C)CCNc1ccc(NCCN2CCCCC2)c2c1C(=O)c1c(O)ccc(O)c1C2=O` [HAQ148, 1-{[(2-Dimethylamino)ethyl]amino}-4-{[2-(piperidin-1-yl)ethyl]amino}-5,8-dihydroxyanthracene-9,10-dione, reference compound]: the IC50 in the data set on 2780AD (2780AD adriamycin resistant) was greater than 1000 nM; in the data set on A2780 (setting [1]), greater than 1000 nM; with A2780 (read-out: Inhibition of cell growth A2780 nM (IC50), A2780 wild type, Table 2), greater than 1000 nM; in the data set on A2780/cp70 (setting [5]) it was greater than 1000 nM.

Take `O=C1c2c(O)ccc(O)c2C(=O)c2c(NCCN3CCCCC3CCl)ccc(NCCN3CCCCC3CCl)c21` (stereo not drawn) [CAQ190M, 1,4-Bis-{[2-(2-chloromethylpiperidin-1-yl)ethyl]amino}-5,8-dihydroxyanthracene-9,10-dione]: the IC50 in the data set on 2780AD (Homo sapiens, 2780AD) is greater than 1000 nM; in the data set with A2780 (setting [3]), 178 nM; in the data set on A2780/cp70 (setting [4]), greater than 1000 nM.

For `O=C1c2c(O)ccc(O)c2C(=O)c2c(NCCN3CCC(O)CC3)ccc(NCCN3CCC(O)CC3)c21` [HAQ116, 1,4-Bis-{[2-(4-hydroxypiperidin-1-yl)ethyl]amino}-5,8-dihydroxy-anthracene-9,10-dione], the melting point lay within 241 to 244 °C.

Compound `O=C1c2ccccc2C(=O)c2c(NCCN3CCCC(CO)C3)ccc(NCCN3CCCC(CO)C3)c21` (stereo not drawn) [HAQ38, 1,4-Bis-{[2-(3-hydroxymethylpiperidine-1-yl)ethyl]amino}-anthracene-9,10-dione] had a melting point of 112 to 114 °C.

In the case of `CN(C)CCNc1ccc(NCCN2CCCCC2CCl)c2c1C(=O)c1c(O)ccc(O)c1C2=O` (stereo not drawn) [CAQ183M, 1-{[2-(2-Chloromethylpiperidin-1-yl)ethyl]-amino}-4-{[(2-dimethylamino)ethyl]amino}-5,8-dihydroxyanthracene-9,10-dione], the IC50 in the data set with 2780AD (2780AD adriamycin resistant) came out at 91 nM; in the data set on A2780/cp70 (setting [5]), 69 nM. Moreover, in the data set with 2780AD, the “RF 2780AD” value worked out at 2.3. In the data set on A2780/cp70, the “RF A2780/cp70” value was 1.7.

`O=C1c2c(O)ccc(O)c2C(=O)c2c(NCCN3CCCC3CCl)ccc(NCCN3CCCC3CCl)c21` (stereo not drawn) [CAQ177M, 1,4-Bis-{[2-(2-chloromethylpyrrolidin-1-yl)ethyl]amino}-5,8-dihydroxyanthracene-9,10-dione]: the “RF 2780AD” value with 2780AD is given as 1.8. Moreover, the IC50 in the data set with 2780AD (Homo sapiens, 2780AD) came out at 782 nM; in the data set on A2780 (setting [3]), 428 nM; with A2780/cp70 (setting [4]) it was 442 nM. The “RF A2780/cp70” value with A2780/cp70 is given as 1.

In turn, `O=C1c2c(O)ccc(O)c2C(=O)c2c(NCCN3CCC(O)C3)ccc(NCCN3CCC(O)C3)c21` (stereo not drawn) [HAQ115, 1,4-Bis-{[2-(3-hydroxypyrrolidin-1-yl)ethyl]amino}-5,8-dihydroxy-anthracene-9,10-dione] yielded a melting point of 197 to 199 °C.

`CN(C)CCNc1ccc(NCCN2CCCC(Cl)C2)c2c1C(=O)c1c(O)ccc(O)c1C2=O` (stereo not drawn) [CAQ166M, 1-{[2-(3-Chloropiperidin-1-yl)ethyl]amino}-4-{[(2-dimethylamino)ethyl]amino}-5,8-dihydroxyanthracene-9,10-dione]: the IC50 in the data set with 2780AD (2780AD adriamycin resistant) was 75 nM; in the data set on A2780/cp70 (setting [5]), 63 nM. In the data set on 2780AD, the “RF 2780AD” value was determined as 8.3. Besides, the “RF A2780/cp70” value with A2780/cp70 was found to be 7.

The record behind these values is US7557215B2, “Anthraquinone compounds as anti cancer compounds” (Somanta Limited, priority 2003, dated 2009).
